{
  "source": "patent US5011839A",
  "about": "“3(2H)pyridazinones for antagonistic agent against srs-a” (Nissan Chemical Industries Ltd., priority 1988, dated 1991)",
  "data": [
    {"tested_on": "LTD4 (contractile responses of guinea-pig trachea)", "test": "LTD4 antagonism in guinea-pig trachea (in vitro test, isolated tracheal spiral strip)", "format": "cell-based", "conditions": "Cavia porcellus, 0.5 h; test compound concentration 10^6 g/ml [sic], added 30 min prior to LTD4; isolated male guinea-pig trachea; vs paired control", "protocol": "LTD4 antagonism in guinea-pig trachea\nAntagonism for LTD4 was determined in isolated male guinea-pig (300-400 g) trachea prepared as spiral strip. Tracheal preparations were suspended under 1 g tension in 10 ml organ baths containing 5 μM of indomethacin and they were incubated for 1 hour prior to used. Contractile responses to LTD4 (2×10^8 g/ml) were obtained after the maximal response to histamine (10^4 M). Test compounds dissolved in 100% dimethyl sulfoxide were added to the organ baths (final concentration of 10^6 g/ml) 30 min prior to LTD4 addition, and then contractile responses to LTD4 were compared with those of control which was obtained from a paired trachea in the absence of test compounds. LTD-induced contractions were expressed as a percentage of the maximal response to histamine. The antagonism was determined as follows:\nAntagonism (%)=(1.0-% contraction in test/% contraction in […]", "units": {"inhibition at 1 µg/mL": "%"}, "values": [
      {"smiles": "COc1ccc(CNc2c(OC(C)C)n[nH]c(=O)c2Cl)c2ccccc12", "note": "[Compound No. 32, 4-Chloro-5-(4-methoxy-1-naphthylmethylamino)-6-i-propoxy-3(2H)pyridazinone]", "inhibition at 1 µg/mL": 50},
      {"smiles": "CCn1ncc(NCc2c(OC)ccc3ccccc23)c(Br)c1=O", "note": "[compound 25]", "inhibition at 1 µg/mL": 50},
      {"smiles": "CCn1ncc(NCc2ccco2)c(Br)c1=O", "note": "[Compound No. 22, 2Ethyl-4-bromo-5-(2-furanylmethylamino)-3(2H)pyridazinone]", "inhibition at 1 µg/mL": 39},
      {"smiles": "COc1ccc(CNc2c(Cl)n[nH]c(=O)c2Cl)c2ccccc12", "note": "[Compound No. 34, 4,6-Dichloro-5-(4-methoxy-1-naphthylmethylamino)-3(2H)pyridazinone]", "inhibition at 1 µg/mL": 99},
      {"smiles": "CCCCCCOc1n[nH]c(=O)c(Cl)c1NCc1cccnc1", "note": "[compound 60]", "inhibition at 1 µg/mL": 96},
      {"smiles": "COc1ccc(CNc2cn[nH]c(=O)c2Br)c2ccccc12", "note": "[Compound No. 16]", "inhibition at 1 µg/mL": 74},
      {"smiles": "CCn1ncc(NCc2ccc3ccccc3c2)c(Br)c1=O", "note": "[compound 24]", "inhibition at 1 µg/mL": 67},
      {"smiles": "CCOc1n[nH]c(=O)c(Cl)c1NCc1ccc(OC)c2ccccc12", "note": "[Compound No. 31]", "inhibition at 1 µg/mL": 95},
      {"smiles": "CCCc1c(OCC(O)COc2ccc3c(=O)cc(C(=O)O)oc3c2CCC)ccc(C(C)=O)c1O", "note": "(centres unmarked) [FPL-55712, reference compound]", "inhibition at 1 µg/mL": 94},
      {"smiles": "COc1ccc(CNc2c([N+](=O)[O-])n[nH]c(=O)c2Cl)c2ccccc12", "note": "[Compound No. 30, 4-Chloro-5-(4-methoxy-1-naphthylmethylamino)-6-nitro-3(2H)pyridazinone]", "inhibition at 1 µg/mL": 50},
      {"smiles": "CCCCOc1n[nH]c(=O)c(Cl)c1NCc1ccc(Cl)nc1", "note": "[compound 57]", "inhibition at 1 µg/mL": 69},
      {"smiles": "CCn1ncc(NCc2cccc3ccccc23)c(Br)c1=O", "note": "[compound 23]", "inhibition at 1 µg/mL": 57},
      {"smiles": "CCn1nc(OC)c(NCc2ccc(OC)c3ccccc23)c(Cl)c1=O", "note": "[compound 38]", "inhibition at 1 µg/mL": 43},
      {"smiles": "COc1ccc(CNc2cn[nH]c(=O)c2Cl)c2ccccc12", "note": "[Compound No. 5, 4-Chloro-5-(4-methoxy-1-naphthylmethylamino)-3(2H)pyridazinone]", "inhibition at 1 µg/mL": 79}
    ]}
  ]
}
